From ChEMBL document CHEMBL1145712, “Two new lignans with activity against influenza virus from the medicinal plant Rhinacanthus nasutus” (J Nat Prod, 1997)
≈ marks a conversion by molar mass, not a printed value.

Key:
Human alphaherpesvirus 2 = assay: Antiviral activity against HSV2 MS in african green monkey Vero cells by viral cytopathic effect assay; type: functional, organism-based; conditions: Human alphaherpesvirus 2, MS
Vero = assay: Cytotoxicity against african green monkey Vero cells by MTT assay; type: cell-based; conditions: Chlorocebus sabaeus
[1] = Selectivity index, ratio of IC50 for african green monkey Vero cells to EC50 for HSV2 MS
Influenza A virus [2] = assay: Antiviral activity against influenza A virus NJH1N1 in MDCK cells by hemadsorption-inhibition assay; type: functional, organism-based
MDCK = assay: Cytotoxicity against MDCK cells by neutral red assay; type: cell-based; conditions: Canis lupus familiaris
[3] = Selectivity index, ratio of IC50 for MDCK cells to EC50 for influenza A virus NJH1N1; type: toxicity, cell-based; conditions: dog, read-out: Ratio IC50/EC50
Influenza A virus [4] = assay: Antiviral activity against influenza A virus NWS33 in MDCK cells assessed as inhibition of viral cytopathic effect by neutral red assay; type: functional, organism-based
[5] = Selectivity index, ratio of IC50 for MDCK cells to EC50 for influenza A virus NWS33; type: toxicity, cell-based; conditions: dog, read-out: Ratio IC50/EC50

Row | Structure (SMILES) | EC50 (Human alphaherpesvirus 2) [µg/mL] | IC50 (Vero) [µg/mL] | Ratio IC50/EC50 [1] | EC50 (Influenza A virus [2]) [µg/mL] | IC50 (MDCK) [µg/mL] | selectivity ratio [3] | EC50 (Influenza A virus [4]) [µg/mL] | selectivity ratio [5]
1 | Nc1nc2c(ncn2COCCO)c(=O)[nH]1 [ACYCLOVIR] | 1.5 (≈ 6.66 µM) | > 100 | >60 |  |  |  |  | 
2 | NC12CC3CC(CC(C3)C1)C2 [AMANTADINE] |  |  |  | 0.054 (≈ 0.357 µM) | 56 (≈ 370 µM) | 1000 |  | 
3 | COC(=O)/C(=C/c1ccc2c(c1)OCO2)C(Cc1cc(OC)c2c(c1)OCO2)C(=O)OC (stereo unspecified) [RHINACANTHIN E] |  | 17 (≈ 38.4 µM) |  | 1.7 (≈ 3.84 µM) | 44 (≈ 99.5 µM) | 26 | 7.4 (≈ 16.7 µM) | 15
4 | COC(=O)C(Cc1ccc2c(c1)OCO2)C(Cc1cc(OC)c2c(c1)OCO2)C(=O)OC (stereo unspecified) [RHINACANTHIN F] |  | 4.4 (≈ 9.9 µM) |  | < 0.94 | 17 (≈ 38.3 µM) | > 18 | 3.1 (≈ 6.98 µM) | 6.8
5 | NC(=O)c1ncn([C@@H]2O[C@H](CO)[C@@H](O)[C@H]2O)n1 [RIBAVIRIN] |  |  |  |  | > 200 |  | 3.7 (≈ 15.2 µM) | > 59
